Calls of active or inactive are those of the source. The calls are words filed in the database; no cut-off is given here.
Key:
[1] = biological target: Activin receptor type-1-like (Homo sapiens) (UniProt P37023); experiment: Inhibition of human ALK1 at 500 nM by HotSpot assay relative to control
[2] = biological target: Aurora kinase B (Homo sapiens) (UniProt Q96GD4); experiment: Inhibition of human Aurora B at 500 nM by HotSpot assay relative to control
[3] = biological target: Serine/threonine-protein kinase B-raf (Homo sapiens) (UniProt P15056); experiment: Inhibition of human BRAF at 500 nM by HotSpot assay relative to control
[4] = biological target: Calcium/calmodulin-dependent protein kinase type II subunit delta (Homo sapiens) (UniProt Q13557); experiment: Inhibition of human CAMK2d at 500 nM by HotSpot assay relative to control
[5] = biological target: CDK6/cyclin D1 (Homo sapiens) (UniProt P24385+Q00534); experiment: Inhibition of human CDK6/cyclin D1 at 500 nM by HotSpot assay relative to control; type: protein-complex assay
[6] = biological target: Casein kinase I isoform delta (Homo sapiens) (UniProt P48730); experiment: Inhibition of human CK1d at 500 nM by HotSpot assay relative to control
[7] = biological target: Casein kinase I isoform gamma-3 (Homo sapiens) (UniProt Q9Y6M4); experiment: Inhibition of human CK1g3 at 500 nM by HotSpot assay relative to control
[8] = biological target: Glycogen synthase kinase-3 alpha (Homo sapiens) (UniProt P49840); experiment: Inhibition of human GSK3a at 500 nM by HotSpot assay relative to control
[9] = biological target: Vascular endothelial growth factor receptor 2 (Homo sapiens) (UniProt P35968); experiment: Inhibition of human KDR at 500 nM by HotSpot assay relative to control
[10] = biological target: MAP kinase-activated protein kinase 3 (Homo sapiens) (UniProt Q16644); experiment: Inhibition of human MAPKAPK3 at 500 nM by HotSpot assay relative to control
[11] = biological target: Serine/threonine-protein kinase MARK2 (Homo sapiens) (UniProt Q7KZI7); experiment: Inhibition of human PAR-1Ba at 500 nM by HotSpot assay relative to control
[12] = biological target: T1, MAP/microtubule affinity-regulating kinase 4 (Homo sapiens) (UniProt Q96L34); experiment: Inhibition of human MARK4 at 500 nM by HotSpot assay relative to control
T1 sequence (whole entry): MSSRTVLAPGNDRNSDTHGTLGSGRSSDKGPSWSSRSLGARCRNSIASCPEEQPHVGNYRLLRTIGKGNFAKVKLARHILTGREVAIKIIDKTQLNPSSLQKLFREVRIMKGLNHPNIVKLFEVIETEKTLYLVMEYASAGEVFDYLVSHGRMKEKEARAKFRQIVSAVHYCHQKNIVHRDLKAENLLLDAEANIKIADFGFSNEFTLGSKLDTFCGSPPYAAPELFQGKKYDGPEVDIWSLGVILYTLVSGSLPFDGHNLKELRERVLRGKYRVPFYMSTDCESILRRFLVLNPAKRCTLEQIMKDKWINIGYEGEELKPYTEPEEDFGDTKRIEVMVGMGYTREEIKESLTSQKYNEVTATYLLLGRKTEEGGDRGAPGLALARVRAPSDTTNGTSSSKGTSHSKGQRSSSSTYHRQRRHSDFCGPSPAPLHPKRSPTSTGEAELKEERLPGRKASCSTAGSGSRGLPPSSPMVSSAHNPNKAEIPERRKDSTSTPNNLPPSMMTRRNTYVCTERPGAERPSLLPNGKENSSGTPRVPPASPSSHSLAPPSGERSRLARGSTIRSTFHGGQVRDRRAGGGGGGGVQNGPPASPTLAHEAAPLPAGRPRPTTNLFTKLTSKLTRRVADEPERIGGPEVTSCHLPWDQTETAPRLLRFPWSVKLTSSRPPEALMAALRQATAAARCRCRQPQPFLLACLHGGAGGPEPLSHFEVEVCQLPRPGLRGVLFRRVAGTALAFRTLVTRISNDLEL

[13] = biological target: Serine/threonine-protein kinase PAK 5 (Homo sapiens) (UniProt Q9P286); experiment: Inhibition of human PAK5 at 500 nM by HotSpot assay relative to control
[14] = biological target: T2, Protein kinase C iota type (Homo sapiens) (UniProt P41743); experiment: Inhibition of human PKCiota at 500 nM by HotSpot assay relative to control
T2 sequence (whole entry): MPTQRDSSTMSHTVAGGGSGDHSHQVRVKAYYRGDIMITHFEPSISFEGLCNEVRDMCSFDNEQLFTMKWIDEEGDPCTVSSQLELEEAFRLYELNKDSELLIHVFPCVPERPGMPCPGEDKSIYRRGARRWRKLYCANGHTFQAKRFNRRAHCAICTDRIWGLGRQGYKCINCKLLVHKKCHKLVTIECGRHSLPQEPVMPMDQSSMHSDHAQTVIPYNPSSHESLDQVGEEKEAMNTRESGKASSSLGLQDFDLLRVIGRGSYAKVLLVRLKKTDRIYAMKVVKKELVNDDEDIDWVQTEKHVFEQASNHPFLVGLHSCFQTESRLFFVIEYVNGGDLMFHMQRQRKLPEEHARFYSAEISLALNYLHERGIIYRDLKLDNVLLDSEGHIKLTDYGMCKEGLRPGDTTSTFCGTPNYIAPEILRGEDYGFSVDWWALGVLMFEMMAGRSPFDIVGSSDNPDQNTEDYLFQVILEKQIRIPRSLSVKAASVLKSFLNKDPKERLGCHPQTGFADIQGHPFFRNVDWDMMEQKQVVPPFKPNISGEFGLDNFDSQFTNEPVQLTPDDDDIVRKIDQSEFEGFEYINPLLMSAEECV

[15] = biological target: Serine/threonine-protein kinase PLK2 (Homo sapiens) (UniProt Q9NYY3); experiment: Inhibition of human PLK2 at 500 nM by HotSpot assay relative to control
[16] = biological target: STE20-like serine/threonine-protein kinase (Homo sapiens) (UniProt Q9H2G2); experiment: Inhibition of human STK2 at 500 nM by HotSpot assay relative to control
[17] = biological target: Serine/threonine-protein kinase 25 (Homo sapiens) (UniProt O00506); experiment: Inhibition of human YSK1 at 500 nM by HotSpot assay relative to control
[18] = Inhibition of mono-phosphorylated human Insulin receptor (978 to 1283 residues) C981S mutant kinase domain expressed in baculovirus infected Sf9 cells incubated for 1 hr by [gamma-33P]ATP assay

Activin receptor type-1-like (Homo sapiens), sequence (P37023 whole entry): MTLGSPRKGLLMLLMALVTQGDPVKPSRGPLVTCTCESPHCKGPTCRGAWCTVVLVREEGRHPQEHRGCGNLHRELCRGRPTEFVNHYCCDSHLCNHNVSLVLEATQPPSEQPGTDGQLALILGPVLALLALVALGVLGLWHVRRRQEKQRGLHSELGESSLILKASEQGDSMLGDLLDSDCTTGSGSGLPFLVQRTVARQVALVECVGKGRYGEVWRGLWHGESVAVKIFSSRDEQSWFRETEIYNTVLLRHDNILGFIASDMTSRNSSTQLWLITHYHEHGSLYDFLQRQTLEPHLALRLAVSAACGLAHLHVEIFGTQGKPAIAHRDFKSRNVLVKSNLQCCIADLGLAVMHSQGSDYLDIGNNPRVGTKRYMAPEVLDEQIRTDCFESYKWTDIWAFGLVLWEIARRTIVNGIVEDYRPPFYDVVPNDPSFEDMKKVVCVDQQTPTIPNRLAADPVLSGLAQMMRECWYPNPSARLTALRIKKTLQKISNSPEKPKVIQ
Calcium/calmodulin-dependent protein kinase type II subunit delta (Homo sapiens), sequence (Q13557 whole entry): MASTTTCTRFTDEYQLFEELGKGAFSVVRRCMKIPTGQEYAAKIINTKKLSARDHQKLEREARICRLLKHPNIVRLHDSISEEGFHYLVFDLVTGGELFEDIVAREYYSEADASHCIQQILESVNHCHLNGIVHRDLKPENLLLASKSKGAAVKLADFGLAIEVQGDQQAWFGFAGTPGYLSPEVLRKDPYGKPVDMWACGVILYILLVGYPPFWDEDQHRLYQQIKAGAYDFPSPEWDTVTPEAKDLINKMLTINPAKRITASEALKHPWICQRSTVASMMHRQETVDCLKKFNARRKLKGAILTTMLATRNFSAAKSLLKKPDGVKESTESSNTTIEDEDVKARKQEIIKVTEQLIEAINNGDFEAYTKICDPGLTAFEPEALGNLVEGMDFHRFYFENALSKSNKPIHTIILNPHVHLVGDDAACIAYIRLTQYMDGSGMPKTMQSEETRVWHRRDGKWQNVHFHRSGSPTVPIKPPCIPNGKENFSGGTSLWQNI
STE20-like serine/threonine-protein kinase (Homo sapiens), sequence (Q9H2G2 whole entry, looked up): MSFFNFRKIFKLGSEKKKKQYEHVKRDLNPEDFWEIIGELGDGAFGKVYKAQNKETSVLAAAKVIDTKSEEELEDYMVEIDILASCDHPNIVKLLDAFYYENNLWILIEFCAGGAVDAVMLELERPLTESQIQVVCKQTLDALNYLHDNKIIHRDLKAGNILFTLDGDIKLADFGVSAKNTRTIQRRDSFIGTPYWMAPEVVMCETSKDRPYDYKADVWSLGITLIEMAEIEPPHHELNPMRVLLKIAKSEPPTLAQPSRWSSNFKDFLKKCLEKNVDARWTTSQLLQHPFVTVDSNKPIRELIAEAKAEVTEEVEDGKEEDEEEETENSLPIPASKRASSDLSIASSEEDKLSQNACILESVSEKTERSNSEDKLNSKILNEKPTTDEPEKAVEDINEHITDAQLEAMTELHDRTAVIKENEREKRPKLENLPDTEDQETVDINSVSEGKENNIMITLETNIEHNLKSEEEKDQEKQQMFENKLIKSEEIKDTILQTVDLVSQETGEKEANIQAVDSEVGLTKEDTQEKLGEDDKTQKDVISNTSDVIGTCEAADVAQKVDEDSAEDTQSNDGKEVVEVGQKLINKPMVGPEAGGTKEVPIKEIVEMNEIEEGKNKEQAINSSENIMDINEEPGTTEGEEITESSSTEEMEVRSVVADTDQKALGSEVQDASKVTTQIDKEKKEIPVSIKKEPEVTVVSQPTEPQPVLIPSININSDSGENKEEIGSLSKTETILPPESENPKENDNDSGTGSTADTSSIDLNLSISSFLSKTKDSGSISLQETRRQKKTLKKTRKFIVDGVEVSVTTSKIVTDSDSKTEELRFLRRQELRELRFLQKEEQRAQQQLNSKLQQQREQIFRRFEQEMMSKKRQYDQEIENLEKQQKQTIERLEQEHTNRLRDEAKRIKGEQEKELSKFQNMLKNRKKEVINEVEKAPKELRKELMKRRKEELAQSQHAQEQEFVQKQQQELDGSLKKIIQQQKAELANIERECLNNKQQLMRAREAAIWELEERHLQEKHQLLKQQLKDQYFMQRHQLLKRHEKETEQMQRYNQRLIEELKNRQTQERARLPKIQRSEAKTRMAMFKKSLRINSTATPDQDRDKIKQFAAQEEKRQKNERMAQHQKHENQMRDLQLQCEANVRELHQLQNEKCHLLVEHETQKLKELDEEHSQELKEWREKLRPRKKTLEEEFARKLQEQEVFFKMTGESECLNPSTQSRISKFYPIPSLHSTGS
Aurora kinase B (Homo sapiens), sequence (Q96GD4 whole entry): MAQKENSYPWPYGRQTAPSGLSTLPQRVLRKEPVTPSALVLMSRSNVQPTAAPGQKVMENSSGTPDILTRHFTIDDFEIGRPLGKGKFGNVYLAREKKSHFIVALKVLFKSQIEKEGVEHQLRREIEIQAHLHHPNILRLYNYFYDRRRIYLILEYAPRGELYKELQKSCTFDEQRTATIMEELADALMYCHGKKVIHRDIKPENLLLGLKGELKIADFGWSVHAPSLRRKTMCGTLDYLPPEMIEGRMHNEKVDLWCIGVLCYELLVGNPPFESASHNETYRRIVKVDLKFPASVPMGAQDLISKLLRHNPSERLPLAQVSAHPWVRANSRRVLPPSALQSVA
Serine/threonine-protein kinase 25 (Homo sapiens), sequence (O00506 whole entry, looked up, the tested form may be a part): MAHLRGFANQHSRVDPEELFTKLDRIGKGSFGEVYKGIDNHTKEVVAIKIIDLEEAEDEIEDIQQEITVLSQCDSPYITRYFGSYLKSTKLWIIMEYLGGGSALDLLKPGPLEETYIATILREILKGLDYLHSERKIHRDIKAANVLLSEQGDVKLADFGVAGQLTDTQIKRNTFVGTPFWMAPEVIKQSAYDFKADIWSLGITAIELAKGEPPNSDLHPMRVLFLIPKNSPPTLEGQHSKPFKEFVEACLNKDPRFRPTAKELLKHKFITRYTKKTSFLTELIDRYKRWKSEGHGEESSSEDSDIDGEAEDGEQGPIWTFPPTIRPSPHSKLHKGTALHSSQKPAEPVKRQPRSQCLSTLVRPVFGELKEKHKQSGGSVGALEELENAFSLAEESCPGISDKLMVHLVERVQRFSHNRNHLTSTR
Casein kinase I isoform delta (Homo sapiens), sequence (P48730 whole entry, looked up, canonical isoform): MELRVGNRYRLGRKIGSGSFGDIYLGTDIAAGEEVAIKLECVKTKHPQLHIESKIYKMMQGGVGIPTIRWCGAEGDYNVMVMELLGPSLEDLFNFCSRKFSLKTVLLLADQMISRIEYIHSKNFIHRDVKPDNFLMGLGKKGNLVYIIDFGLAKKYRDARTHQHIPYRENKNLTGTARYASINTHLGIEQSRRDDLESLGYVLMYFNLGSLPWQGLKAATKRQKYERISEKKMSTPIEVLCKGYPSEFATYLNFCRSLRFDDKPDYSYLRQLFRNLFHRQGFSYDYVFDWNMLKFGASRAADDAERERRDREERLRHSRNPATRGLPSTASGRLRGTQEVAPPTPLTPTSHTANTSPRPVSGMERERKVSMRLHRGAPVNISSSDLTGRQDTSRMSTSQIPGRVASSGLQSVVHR
Serine/threonine-protein kinase B-raf (Homo sapiens), sequence (P15056 whole entry): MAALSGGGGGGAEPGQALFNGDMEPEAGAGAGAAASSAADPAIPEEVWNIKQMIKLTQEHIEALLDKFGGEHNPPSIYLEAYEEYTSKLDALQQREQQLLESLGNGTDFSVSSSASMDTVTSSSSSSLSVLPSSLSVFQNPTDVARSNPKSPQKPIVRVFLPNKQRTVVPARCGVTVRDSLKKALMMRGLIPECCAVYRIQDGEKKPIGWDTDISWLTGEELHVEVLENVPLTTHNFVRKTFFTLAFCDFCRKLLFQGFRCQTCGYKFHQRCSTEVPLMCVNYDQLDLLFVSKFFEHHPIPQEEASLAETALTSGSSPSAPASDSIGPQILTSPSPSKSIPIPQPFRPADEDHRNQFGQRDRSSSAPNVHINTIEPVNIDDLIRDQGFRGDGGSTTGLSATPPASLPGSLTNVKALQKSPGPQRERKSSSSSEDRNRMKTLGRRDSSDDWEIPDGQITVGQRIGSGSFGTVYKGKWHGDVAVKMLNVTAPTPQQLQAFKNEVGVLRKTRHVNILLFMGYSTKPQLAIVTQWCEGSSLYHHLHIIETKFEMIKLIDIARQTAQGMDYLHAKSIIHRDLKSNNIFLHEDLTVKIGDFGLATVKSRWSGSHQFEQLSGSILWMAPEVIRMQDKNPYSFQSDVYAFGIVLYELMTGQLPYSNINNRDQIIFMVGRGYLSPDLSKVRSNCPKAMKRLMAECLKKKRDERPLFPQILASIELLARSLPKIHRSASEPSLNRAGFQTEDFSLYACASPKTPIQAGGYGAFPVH
Serine/threonine-protein kinase MARK2 (Homo sapiens), sequence (Q7KZI7 whole entry): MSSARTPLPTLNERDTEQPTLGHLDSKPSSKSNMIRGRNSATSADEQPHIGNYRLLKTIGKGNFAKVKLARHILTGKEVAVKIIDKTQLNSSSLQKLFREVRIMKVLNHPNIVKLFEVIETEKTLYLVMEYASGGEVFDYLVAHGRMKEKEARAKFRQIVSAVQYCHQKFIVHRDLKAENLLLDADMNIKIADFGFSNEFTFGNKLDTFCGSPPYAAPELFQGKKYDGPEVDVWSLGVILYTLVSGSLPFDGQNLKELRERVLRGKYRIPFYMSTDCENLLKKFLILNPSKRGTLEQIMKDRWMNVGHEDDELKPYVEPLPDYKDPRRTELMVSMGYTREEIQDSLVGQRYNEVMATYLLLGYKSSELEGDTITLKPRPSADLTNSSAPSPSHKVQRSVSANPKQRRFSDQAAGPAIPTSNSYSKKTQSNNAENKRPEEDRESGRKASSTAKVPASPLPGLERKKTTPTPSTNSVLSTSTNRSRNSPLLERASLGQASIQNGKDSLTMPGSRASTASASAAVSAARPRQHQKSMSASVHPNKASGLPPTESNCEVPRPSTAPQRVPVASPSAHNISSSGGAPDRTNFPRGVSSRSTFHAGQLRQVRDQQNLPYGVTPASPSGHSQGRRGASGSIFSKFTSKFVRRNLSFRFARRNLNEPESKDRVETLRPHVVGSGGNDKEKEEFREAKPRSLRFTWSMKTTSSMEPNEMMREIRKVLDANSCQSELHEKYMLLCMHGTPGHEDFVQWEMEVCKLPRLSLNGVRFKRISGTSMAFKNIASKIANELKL

SMILES	inhibition [1] [%]	inhibition [2] [%]	inhibition [3] [%]	inhibition [4] [%]	inhibition [5] [%]	inhibition [6] [%]	inhibition [7] [%]	inhibition [8] [%]	inhibition [9] [%]	inhibition [10] [%]	inhibition [11] [%]	inhibition [12] [%]	inhibition [13] [%]	inhibition [14] [%]	inhibition [15] [%]	inhibition [16] [%]	inhibition [17] [%]	inhibition [18]
Nc1n[nH]c2nnc(-c3c(-c4ccccc4)nn4ccccc34)cc12	-6.11	3.24	4.35	3.52	-0.33	36.8	6.29	18.9	-1.19	-2.71	-4.05	-4.7	1.83	1.7	-6.73	6.01	15.8	Active
Oc1n[nH]c2nnc(-c3c(-c4ccccc4)nn4ccccc34)cc12	-0.63	2.45	3.81	2.55	-3.16	4.93	-4.44	-1.18	-5.2	-0.14	-4.11	-3.17	11.6	1.33	-3.28	0.54	4.81	Active

— ChEMBL document CHEMBL5653615 (J Biol Chem, 2013)
